The values below come from PubChem BioAssay (NCI).

Molecules are shown by their SMILES.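 Where inhibition never reached the appropriate level, the endpoint shown equals the highest concentration tested. Otherwise, values were interpolated linearly from a five-concentration, 48-hour dose response in 96-well plates. Definition used: TGI = concentration required for complete inhibition of growth.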

Among the test systems are DMS 114 small cell lung; DLD-1 colon; SN12K1 renal; DMS 273 small cell lung; SNB-78 CNS; HOP-18 NSCLC; RXF-631 renal; LXFL 529 NSCLC; XF 498 CNS; P388 leukemia; P388/ADR leukemia.
What all share (test): NCI tumour cell line growth inhibition, 48 h

Take `COC1=C(C)C(=O)C2=C(C1=O)C1C3CC4=C(C(=O)C(OC)=C(C)C4=O)C(CNC(=O)C(C)O)N3C(C#N)C(C2)N1C` (stereo not drawn): the TGI in the assay with DMS 114 small cell lung is less than 0.01 µM; in the assay with DLD-1 colon, 0.372 µM; in the assay with SN12K1 renal, less than 0.01 µM; in the assay with DMS 273 small cell lung, less than 0.0111 µM; with SNB-78 CNS it was 0.0863 µM; with HOP-18 NSCLC it was less than 0.01 µM.

Take `O=P(Nc1ccccc1)(Oc1ccccc1)N(CCCl)CCCl` (stereo not drawn): the TGI with DMS 114 small cell lung, with DLD-1 colon, in the assay on RXF-631 renal, in the assay with DMS 273 small cell lung, in the assay on SNB-78 CNS and with HOP-18 NSCLC was more than 100 µM in each case.

Regarding `C=CC(C)C1(CCCOCc2ccccc2)C(=S)N2CCC3(CC24CCCC14)OCCO3` (stereo not drawn), the TGI with DMS 114 small cell lung, in the assay on DLD-1 colon, in the assay with LXFL 529 NSCLC, with DMS 273 small cell lung, in the assay with SNB-78 CNS and in the assay with HOP-18 NSCLC was more than 100 µM each time. The TGI with XF 498 CNS was 52.7 µM.

On to `CNC(=O)SCC(NC(=O)CCC(N)C(=O)O)C(=O)NCC(=O)O` (stereo not drawn), for which the TGI in the assay on DMS 114 small cell lung, in the assay with DLD-1 colon, in the assay on SN12K1 renal, in the assay with DMS 273 small cell lung, in the assay with P388 leukemia and with SNB-78 CNS was more than 100 µM in each case. The TGI in the assay on P388/ADR leukemia, in the assay with HOP-18 NSCLC and in the assay on XF 498 CNS was more than 100 µM in each case.
